# Data as given in patent US12564610B2, “Human periventricular endothelial cell therapy for neuropsychiatric disorders” (The McLean Hospital Corporation, priority 2019, dated 2026).
# Key:
# Type in all cases: cell-based
# [1] = system: human periventricular endothelial cells; test: Long-distance migration assay of periventricular endothelial cells with chemicals; details: compared to control (no chemicals added), five days
# Excerpt: Long-distance migration assay: In preparation for migration assays, two-well silicone culture inserts (from ibidi GmbH, Cat #80209) were converted into one-well inserts by cutting with a sharp, sterile blade. Individual one-well inserts were placed in the middle of a 35 mm dish coated with Poly-Ornithine and Laminin. The boundary of the insert was marked on the back of each dish with a thin marker. For this assay, periventricular endothelial cells, control endothelial cells and endothelial cells derived without GABA and WNT7A were used at passage number P2 or P3, while GABA interneurons cultured for six weeks were used. 10^4 periventricular endothelial cells or endothelial cells derived without GABA and WNT7A were seeded in each insert in periventricular endothelial cell medium without GABA. Same number of GABAergic interneurons or control endothelial cells were seeded per insert in their respective manufacturer's recommended medium. The insert was removed after 48 hours and cells cultured for five days. After 5 days, cells were fixed and fluorescently labeled with an anti-human CD31 antibody (for endothelial cells) or an anti-human β-Tubulin antibody (for neurons) and DAPI. The distance between each cell body and the edge of the insert-boundary was measured using ImageJ.
# Migration assays with chemicals: To assess the roles of GABA or SDF-1/CXCL12 signaling on migration of human periventricular endothelial cells, 10^4 cells were seeded in one well insert and allowed to migrate in the presence of respective agonist or antagonist in periventricular endothelial cell medium (without GABA). After five days, cells were fixed, stained with anti-human CD31 antibody (Millipore), imaged and the distance migrated was calculated using ImageJ. To examine the effect of endothelial GABA or endothelial SDF-1/CXCL12 signaling on interneuron migration, human periventricular endothelial cells were seeded in 35 mm dish (10^5 cells/cm^2) and incubated with respective chemical for a period of 48 hours. […]
# [2] = system: GABAergic interneurons on pre-incubated human periventricular endothelial cells; test: Interneuron migration over chemical-pre-treated periventricular endothelial cells; details: interneurons migrate 48 hours, vs control
# Protocol: Migration assays with chemicals: To assess the roles of GABA or SDF-1/CXCL12 signaling on migration of human periventricular endothelial cells, 10^4 cells were seeded in one well insert and allowed to migrate in the presence of respective agonist or antagonist in periventricular endothelial cell medium (without GABA). After five days, cells were fixed, stained with anti-human CD31 antibody (Millipore), imaged and the distance migrated was calculated using ImageJ. To examine the effect of endothelial GABA or endothelial SDF-1/CXCL12 signaling on interneuron migration, human periventricular endothelial cells were seeded in 35 mm dish (10^5 cells/cm^2) and incubated with respective chemical for a period of 48 hours. 3×10^4 GABAergic interneurons were seeded on top of the periventricular endothelial cells using a one-well insert, and allowed to migrate over the pre-incubated periventricular endothelial cells for 2 days. Migration of neurons was assayed by staining with anti-human β-Tubulin antibody (Biolegend) and imaged. The concentration of chemicals used in the assays are as follows: muscimol (Sigma) 100 uM, BMI (Sigma) 100 uM, AMD3100 (Sigma) 50 μM, recombinant human SDF-1α (Peprotech) 40 nM. The chemicals were kept at −20° as concentrated stock solutions and diluted on the day of the experiment.
# [3] = system: human periventricular endothelial cells; test: Junction protein immunostaining in differentiating periventricular endothelial cells (effect of GABA / WNT7A)
# Protocol: Endothelial cell differentiation and culture: H9 cells (WiCell, Madison, WI) were maintained in E8 media (Thermo Fisher Scientific) on Matrigel (BD Biosciences)-coated plates and passaged once a week with 0.5 mM EDTA (Thermo Fisher Scientific) in PBS. On day 0 of differentiation, H9 cells were dissociated with Accutase (Sigma), and plated at a density of 10^5 cells/cm^2 on Matrigel-coated plates. […] Rock inhibitor, Y-27632 (1004, Selleck Chemicals) was added for first 24 hours to improve cell survival. On day 2, cells were switched to vascular inducing medium composed of E6 medium (Thermo Fisher Scientific) containing BMP4 (50 ng/ml), SB431542 (5 μM, Cayman Chemicals), GABA (5 μM), WNT7A (500 ng/ml), FGF2 (100 ng/ml, Peprotech) and VEGF-A (50 ng/ml, Peprotech). On day 5, cells were split at 1:6 ratio using Accutase and plated on Matrigel-coated plates in periventricular endothelial cell (PVEC) medium consisting of E6 with VEGF-A (50 ng/ml), FGF2 (100 ng/ml) and GABA (5 μM). On day 7, periventricular endothelial cells were isolated from the mixed population by fluorescence-activated cell sorting (FACS) and seeded on Matrigel-coated plates in periventricular endothelial cells medium at a density of 6×10^5 cells/cm^2. For routine culturing, periventricular endothelial cells were dissociated using Accutase, and seeded on Matrigel-coated plates at a density of 6×10^5 cells/cm^2 (high density seeding) or 1.2×10^5 cells/cm^2 (low density seeding), with medium change every alternate day. Periventricular endothelial cells were cryopreserved after at least one passaging in freezing medium composed of 90% periventricular endothelial cells medium and 10% DMSO. As a source of neurons, we used human iPSC-derived GABAergic neurons from Cellular Dynamics (Madison, WI, Cat #R1013). As control for microarray analysis and for cell migration assays, we used human-iPSC derived endothelial cells from Cellular Dynamics (Madison WI, Cat #R1022), whose gene expression profile is similar to human aortic endothelial cells (HAECs; https://fujifilmedi.com/assets/CDI130925MIPTEC04.pdf). […]
# [4] = endothelial cells treated 48 hours with 100 μM
smiles,measurement,setting,value
c1cc(CN2CCCNCCNCCCNCC2)ccc1CN1CCCNCCNCCCNCC1 [AMD3100],periventricular endothelial cell migration,[1]; 50 μM,no significant effect on endothelial cell migration
same,interneuron migration on pre-treated periventricular endothelial cells,[2]; endothelial cells treated 48 hours with 50 μM,No discernible effect on interneuron migration
"C[N+]1(C)CCc2cc3c(cc2[C@H]1[C@@H]1OC(=O)c2c1ccc1c2OCO1)OCO3.[I-] [BMI, bicuculline methiodide]",periventricular endothelial cell migration,[1]; 100 μM,significant decrease in cell migration
same,interneuron migration on pre-treated periventricular endothelial cells,[2]; [4],decreased migration
"NCCCC(=O)O [GABA, gamma amino-butyric acid]",tight junction formation (Claudin5 and ZO-1 staining),"[3]; 5 uM GABA, in comparison to 50 μM or 100 μM",increases tight junction formation
same,localization of tight junction proteins Claudin 5 and ZO-1,[3]; 50 uM or 100 μM GABA,disrupted the localization of tight junction proteins Claudin 5 and ZO-1
same,expression of VE-Cadherin,"[3]; increase in GABA levels (5, 50, 100 μM)",not affected by increase in GABA levels
NCc1cc(=O)[nH]o1 [muscimol],periventricular endothelial cell migration,[1]; 100 μM,significant increase in the number of migrating cells
same,interneuron migration on pre-treated periventricular endothelial cells,[2]; [4],significantly higher migratory ability
